Reference: patent publication US9446024B2, “Formulations for the treatment of vaginal disorders” (Mission Pharmacal Company, priority 2013, dated 2016)

Key:
Experiment in all cases: MIC determination, agar dilution
Assay type in all cases: cell-based
Lactobacillus crispatus = settings: non-reference strain
Lactobacillus gasseri = settings: each identified strain
Lactobacillus iners = settings: each identified strain
Lactobacillus jensenii = settings: each identified strain
Lactobacillus vaginalis = settings: Limosilactobacillus vaginalis; each identified strain
Mobiluncus curtisii = settings: each identified strain

CCS(=O)(=O)CCn1c([N+](=O)[O-])cnc1C [tinidazole]
unaffected: growth inhibition at the highest concentration tested (Lactobacillus crispatus)
> 150 µg/mL: MIC (Lactobacillus gasseri) | MIC (Lactobacillus iners) | MIC (Lactobacillus jensenii) | MIC (Lactobacillus vaginalis) | MIC (Mobiluncus curtisii)
